Experimental data as given in patent US10865387B2, “Methods of obtaining pancreatic endocrine cells” (The University Court of the University of Aberdeen, priority 2014, dated 2020).

How the values were obtained:
[1] = tested on: human exocrine enriched fraction (EEF); assay: Insulin, C-peptide and glucagon content of cell lysates by ELISA; assay type: cell-based; conditions: reprogrammed (siARX) cells with ZnCl2 10 μM; FIG. 15
Source text: FIG. 10. ARX inhibition enhances beta cell maturation and decreases alpha cell differentiation. (A) C-peptide release by untreated (N/A), transdifferentiated cells in the absence of siARX (REP), siARX transdifferentiated cells (siARX) and in the absence of PAX4 (siARX-PAX4). C-peptide was detected from the culture medium by a specific human C-peptide ELISA. Data are representative of triplicate experiments. (B) Insulin, C-peptide and Proinsulin content of untreated, transdifferentiated cells in the absence of siARX (REP), siARX transdifferentiated cells (siARX) and human islets. The content of each peptide was detected by specific human ELISAs after cell lysis and normalised to the total protein content. Data are representative of triplicate experiments. (C) Glucagon content of untreated, transdifferentiated cells in the absence of siARX (REP), siARX transdifferentiated cells (siARX) and human islets. Glucagon was detected by a specific human ELISA after cell lysis and normalised to the total protein content. Data are representative of triplicate experiments. […]
[…] were measured using a human glucagon Quantikine ELISA kit (R&D Systems, Abingdon, UK), a human C-peptide ELISA kit (Millipore, Livingston, UK), a human prosinsulin ELISA kit or a human insulin ELISA kit (both from Mercodia, Uppsala, Sweden). […]

[2] = tested on: human exocrine enriched fraction (EEF); assay: RT-qPCR of hormone and transcription factor mRNA in reprogrammed exocrine cells; assay type: cell-based
Protocol: After 48 h the cells were incubated for another 72 h in serum free medium (SFM) prepared with RPMI 1640, insulin-transferrin-selenium (Gibco) and 1% bovine serum albumin (Sigma), supplemented with 10 μM SB431542, 2 μM Y27632, 1 μM 5-Aza-2′deoxycytidine and 10 mM sodium butyrate (all from Sigma). On the next day the cells were incubated for 4 h with the adenoviruses encoding pancreatic transcription factors. On the following day the medium was changed for SFM supplemented with 1 nM betacellulin (R&D systems, Abingdon, UK), 10 nM exendin-4 and 10 mM nicotinamide (both from Sigma). The medium was changed every two days for another 6 days before harvesting.
Recombinant adenoviruses encoding the mouse sequences of PDX1, MAFA, NGN3 and PAX4 (Swales et al., 2012) were prepared using the Ad-Easy™ system (Agilent Technologies, Edinburgh, UK). The adenoviruses containing PDX1 and NGN3 also expressed GFP through a downstream CMV promoter. Viral transduction was performed in SFM for 4 h at a multiplicity of infection (MOI) of 100 for each virus.
QRT/PCR was performed as previously described (Lima et al., 2012. Data were analysed using the 2^−ΔΔCT method. Statistical analysis was performed using PRISM software and the student's t-test or one-way ANOVA followed by the Dunnet's post-hoc test, as appropriate. The list of TaqMan probes are listed in Table 1:
Knockdown of Arx in transdifferentiating cells was performed by transfection with a pool of specific targeting small inhibitory RNAs, or scrambled controls (Dharmacon, Loughborough, UK). 100 nM siRNA was transfected on day 6 of the transdifferentiation protocol using Dharmafect 1 (Dharmacon), according to the manufacturer's instructions.
EEF cells were plated directly from the low purity fractions obtained following islet isolation. EEF cells were cultured as a monolayer for two days and then treated with SB, Y2, Aza and NaBu for 3 days. […]

[3] = cells reprogrammed (siARX) with ZnCl2 10 μM, FIG. 14

Compound	insulin (C-peptide) protein content [1]	insulin gene expression [2, 3]	mRNA encoding PAX4 [2, 3]	efficiency of reprogramming (relative expression of insulin) on extracellular matrix ([2]; PDX1/MAFA/NGN3/PAX4 protocol, compared with fibronectin, poly-lysine, collagen type I and IV, FIG. 4)
[Cl-].[Cl-].[Zn+2] [ZnCl2]	stimulatory effect	significant effect	increased levels	
laminin				improves the efficiency of reprogramming
